Test results reported in patent publication US20050014849A1, “Antifungal phenylethylene” (priority 2001, published 2005).
≈ marks a conversion by molar mass, not a printed value.

Assays:
all bacteria = test: NCCLS broth macrodilution assay, antibacterial; format: cell-based; settings: Neisseria gonorrhoeae; all bacteria (single exception N. gonorrhoeae)
Procedure: (§1) The antibacterial activity of TMPN was also assessed by the NCCLS broth macrodilution assay. Isolated colonies from overnight cultures were suspended and diluted as recommended to yield final inocula of approximately 5×10^5 cfu/ml. Tests were performed in sterile plastic tubes (12 by 75 mm) containing twofold dilutions of TMPN in gonococcal typing broth (Neisseria), Mueller Hinton II (MHII) (cation adjusted) broth containing 3% lysed horse blood (Streptococcus) or MHII broth (all other bacteria). One tube was left drug-free (but contained an equivalent volume of DMSO) for a turbidity control. Tubes were incubated without agitation at 37° C. with 5% CO2 (Streptococcus, Neisseria), or at 35° C. (remaining bacteria). MICs were determined after 24 h for all bacteria except Micrococcus, which was read at 48 h. The MIC was defined as the lowest concentration of drug that inhibited all visible growth of the test organism (optically clear).

N. gonorrhoeae = test: NCCLS broth macrodilution assay, antibacterial; format: cell-based; settings: Neisseria gonorrhoeae
Procedure: as §1

T. ovoides ATCC 90040 = test: Broth macrodilution MIC/MFC; format: cell-based, Trichosporon ovoides
Procedure: TMPN was screened against yeasts by the broth macrodilution assay according to the NCCLS [7]. Yeasts were suspended and diluted as recommended to yield final inocula ranging from 0.5-2.5×10^3 cfu/ml. Tests were performed in sterile 12 by 75 mm plastic tubes containing two-fold dilutions of TMPN in 0.165 M morpholinepropanesulfonic acid buffered RPMI 1640 medium (pH 7.0). One tube was again left drug free (but contained an equivalent volume of DMSO) for a turbidity control. Tubes were incubated without agitation at the appropriate temperature (see Fungal Strains section above). MICs were determined after 72 h for Cryptococcus and after 48 h for other yeast genera. The MIC was defined as the lowest concentration of TMPN that inhibited all visible growth of the test organism (optically clear).
Minimum fungicidal concentrations (MFCs) were determined by subculturing 0.1 ml from each tube with no visible growth in the MIC broth macrodilution series onto the appropriate drug-free plates (see Fungal Strains section above).

[1] = tested on: Candida albicans ATCC 90028; test: NCCLS disk susceptibility test; format: cell-based; settings: disk diffusion
Procedure: (§2) Antimicrobial activity was assayed by National Committee for Clinical Laboratory Standards (NCCLS) disk susceptibility tests. Isolated colonies from overnight cultures were suspended and diluted as recommended to yield approximately 1-2×10^8 cfu/ml, and 50 μl of this preparation immediately spread on agar plates. NCCLS recommended agar media were used for S. pneumoniae and N. gonorrhoeae, and Mueller-Hinton agar for all other bacteria. Yeast strains were tested on SDA. Excess moisture was absorbed for 10 min prior to application of 6 mm paper discs containing two-fold dilutions of TMPN in sterile DMSO.

[2] = tested on: Proteus vulgaris Presque Isle 365; test: NCCLS disk susceptibility test; format: cell-based; settings: disk diffusion
Procedure: as §2

[3] = tested on: Stenotrophomonas maltophilia ATCC 13637; test: NCCLS disk susceptibility test; format: cell-based; settings: disk diffusion
Procedure: as §2

[4] = tested on: Streptococcus pneumoniae ATCC 6303; test: NCCLS disk susceptibility test; format: cell-based; settings: disk diffusion
Procedure: as §2

[5] = tested on: Klebsiella pneumoniae Presque Isle 344; test: NCCLS disk susceptibility test; format: cell-based; settings: disk diffusion
Procedure: as §2

[6] = tested on: Enterococcus faecalis ATCC 29212; test: NCCLS disk susceptibility test; format: cell-based; settings: disk diffusion
Procedure: as §2

[7] = tested on: Staphylococcus aureus ATCC 29213; test: NCCLS disk susceptibility test; format: cell-based; settings: disk diffusion
Procedure: as §2

[8] = tested on: Micrococcus luteus Presque Isle 456; test: NCCLS disk susceptibility test; format: cell-based; settings: disk diffusion
Procedure: as §2

[9] = tested on: Bacillus subtilis Presque Isle 620; test: NCCLS disk susceptibility test; format: cell-based; settings: disk diffusion
Procedure: as §2

[10] = tested on: Pseudomonas aeruginosa Presque Isle 99; test: NCCLS disk susceptibility test; format: cell-based; settings: disk diffusion
Procedure: as §2

[11] = tested on: Neisseria gonorrhoeae ATCC 49226; test: NCCLS disk susceptibility test; format: cell-based; settings: disk diffusion
Procedure: as §2

[12] = tested on: Enterobacter cloacae ATCC 13047; test: NCCLS disk susceptibility test; format: cell-based; settings: disk diffusion
Procedure: as §2

[13] = tested on: Staphylococcus epidermidis Presque Isle 4653; test: NCCLS disk susceptibility test; format: cell-based; settings: disk diffusion
Procedure: as §2

[14] = tested on: Cryptococcus neoformans ATCC 90112; test: NCCLS disk susceptibility test; format: cell-based; settings: disk diffusion
Procedure: as §2

[15] = tested on: Escherichia coli ATCC 25922; test: NCCLS disk susceptibility test; format: cell-based; settings: disk diffusion
Procedure: as §2

With COc1cc(C=C[N+](=O)[O-])cc(OC)c1OC [TMPN, 1-(3′,4′,5′-trimethoxyphenyl)-2-nitro-ethylene] the MIC (all bacteria) was greater than 64 µg/mL, the MIC (N. gonorrhoeae) was 4 µg/mL (≈ 16.7 µM) and the “MFC Range” value (T. ovoides ATCC 90040) was 32 µg/mL (≈ 134 µM). For the same compound, the “MIC Range” value (T. ovoides ATCC 90040) was 16 µg/mL (≈ 66.9 µM), the MIC [1] was 6.25-12.5 μg/disk and the MIC [2] was 12.5-25 μg/disk. For the same compound, the MIC [3] was greater than 100 μg/disk, the MIC [4] was 3.12-6.25 μg/disk and the MIC [5] was greater than 100 μg/disk. For the same compound, the MIC [6] was 50-100 μg/disk, the MIC [7] was 3.12-6.25 μg/disk and the MIC [8] was 50-100 μg/disk. For the same compound, the MIC [9] was 50-100 μg/disk, the MIC [10] was greater than 100 μg/disk and the MIC [11] was 0.39-0.78 μg/disk. The MIC [12] was greater than 100 μg/disk, the MIC [13] was 50-100 μg/disk and the MIC [14] was 0.78-1.56 μg/disk. The MIC [15] was greater than 100 μg/disk.
